Reference: ChEMBL document CHEMBL4680201, “Design, synthesis, and pharmacological evaluation of 4- or 6-phenyl-pyrimidine derivatives as novel and selective Janus kinase 3 inhibitors” (Eur J Med Chem, 2020)
Calls of active or inactive are those of the source. No cut-off for these calls is given here.

Key:
[1] = biological target: T1, Tyrosine-protein kinase JAK3 (Homo sapiens, UniProt P52333)
T1 sequence (P52333 whole entry): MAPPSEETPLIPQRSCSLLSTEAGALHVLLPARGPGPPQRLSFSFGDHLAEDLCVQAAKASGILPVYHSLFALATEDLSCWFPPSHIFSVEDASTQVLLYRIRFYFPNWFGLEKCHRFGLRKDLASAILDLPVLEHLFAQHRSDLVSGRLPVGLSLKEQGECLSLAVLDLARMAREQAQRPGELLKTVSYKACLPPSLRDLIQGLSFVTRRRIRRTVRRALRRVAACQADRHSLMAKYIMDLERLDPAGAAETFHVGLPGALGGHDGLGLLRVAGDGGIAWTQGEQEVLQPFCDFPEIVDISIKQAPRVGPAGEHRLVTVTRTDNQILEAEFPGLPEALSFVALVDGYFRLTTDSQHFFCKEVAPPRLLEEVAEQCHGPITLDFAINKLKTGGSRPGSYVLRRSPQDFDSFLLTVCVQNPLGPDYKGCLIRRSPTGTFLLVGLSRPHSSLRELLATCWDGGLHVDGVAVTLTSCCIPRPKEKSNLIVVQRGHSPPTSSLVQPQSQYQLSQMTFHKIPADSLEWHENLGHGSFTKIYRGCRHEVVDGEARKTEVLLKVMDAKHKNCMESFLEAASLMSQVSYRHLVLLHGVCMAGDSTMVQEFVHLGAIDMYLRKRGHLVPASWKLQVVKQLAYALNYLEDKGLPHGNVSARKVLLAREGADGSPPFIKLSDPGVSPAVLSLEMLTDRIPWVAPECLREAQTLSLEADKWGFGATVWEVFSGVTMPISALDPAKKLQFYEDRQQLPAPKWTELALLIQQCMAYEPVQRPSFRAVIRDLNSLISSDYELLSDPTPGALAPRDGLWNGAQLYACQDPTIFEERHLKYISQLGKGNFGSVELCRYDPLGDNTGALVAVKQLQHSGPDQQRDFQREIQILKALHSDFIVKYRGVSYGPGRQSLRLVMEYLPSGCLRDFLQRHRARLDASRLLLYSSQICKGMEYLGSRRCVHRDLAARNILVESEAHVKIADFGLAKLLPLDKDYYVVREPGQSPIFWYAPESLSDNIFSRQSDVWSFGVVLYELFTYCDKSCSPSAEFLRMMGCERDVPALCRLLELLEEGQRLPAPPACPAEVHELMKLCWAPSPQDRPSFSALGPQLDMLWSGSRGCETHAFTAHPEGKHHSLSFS

[2] = biological target: T2, Tyrosine-protein kinase JAK3 (Mus musculus) (UniProt Q62137); assay: Inhibition of JAK3 in anti-CD3/-CD28 coated mouse T cells assessed as reduction in IL15-induced STAT5 phosphorylation at 10 uM preincubated for 1 hr followed by […] and measured after 30 mins by Western blot analysis; conditions: T cell
T2 sequence (whole entry): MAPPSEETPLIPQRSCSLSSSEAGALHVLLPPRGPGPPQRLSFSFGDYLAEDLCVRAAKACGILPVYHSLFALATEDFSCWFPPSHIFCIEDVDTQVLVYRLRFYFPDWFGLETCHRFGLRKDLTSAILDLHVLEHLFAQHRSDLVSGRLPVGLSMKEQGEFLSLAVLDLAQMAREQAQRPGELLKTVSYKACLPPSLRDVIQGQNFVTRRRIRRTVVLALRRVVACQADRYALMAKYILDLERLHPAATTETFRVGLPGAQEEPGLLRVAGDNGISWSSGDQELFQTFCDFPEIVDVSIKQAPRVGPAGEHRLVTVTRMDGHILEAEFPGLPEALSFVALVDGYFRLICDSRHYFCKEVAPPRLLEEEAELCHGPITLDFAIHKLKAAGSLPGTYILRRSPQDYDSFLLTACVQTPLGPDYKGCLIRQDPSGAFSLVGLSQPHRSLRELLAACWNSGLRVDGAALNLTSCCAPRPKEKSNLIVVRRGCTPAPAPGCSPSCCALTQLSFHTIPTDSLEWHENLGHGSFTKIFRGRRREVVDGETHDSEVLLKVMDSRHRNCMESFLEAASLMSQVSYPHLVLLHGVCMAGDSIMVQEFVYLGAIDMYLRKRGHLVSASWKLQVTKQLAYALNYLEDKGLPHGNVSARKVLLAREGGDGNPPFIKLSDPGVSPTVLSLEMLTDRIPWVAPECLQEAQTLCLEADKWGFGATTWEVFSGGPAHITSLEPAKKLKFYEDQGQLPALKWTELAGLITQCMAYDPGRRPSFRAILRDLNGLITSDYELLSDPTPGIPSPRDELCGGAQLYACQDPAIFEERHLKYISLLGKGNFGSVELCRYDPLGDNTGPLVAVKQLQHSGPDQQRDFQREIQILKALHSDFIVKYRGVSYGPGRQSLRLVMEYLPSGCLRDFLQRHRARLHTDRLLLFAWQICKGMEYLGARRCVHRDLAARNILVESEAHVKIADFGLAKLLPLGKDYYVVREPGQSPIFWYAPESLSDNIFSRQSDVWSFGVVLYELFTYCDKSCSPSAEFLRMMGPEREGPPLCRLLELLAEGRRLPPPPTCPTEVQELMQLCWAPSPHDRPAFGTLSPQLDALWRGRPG

[3] = biological target: BLK (Tyrosine-protein kinase Blk) (Homo sapiens, UniProt P51451); assay: Inhibition of recombinant human His-tagged full length BLK expressed in baculovirus expression system at 100 nM using Tyr01 peptide as substrate incubated for 1 hr in presence of ATP by Z'-LYTE assay relative to control; conditions: probe Tyr01 peptide
Sequence of BLK (Tyrosine-protein kinase Blk) (P51451 whole entry): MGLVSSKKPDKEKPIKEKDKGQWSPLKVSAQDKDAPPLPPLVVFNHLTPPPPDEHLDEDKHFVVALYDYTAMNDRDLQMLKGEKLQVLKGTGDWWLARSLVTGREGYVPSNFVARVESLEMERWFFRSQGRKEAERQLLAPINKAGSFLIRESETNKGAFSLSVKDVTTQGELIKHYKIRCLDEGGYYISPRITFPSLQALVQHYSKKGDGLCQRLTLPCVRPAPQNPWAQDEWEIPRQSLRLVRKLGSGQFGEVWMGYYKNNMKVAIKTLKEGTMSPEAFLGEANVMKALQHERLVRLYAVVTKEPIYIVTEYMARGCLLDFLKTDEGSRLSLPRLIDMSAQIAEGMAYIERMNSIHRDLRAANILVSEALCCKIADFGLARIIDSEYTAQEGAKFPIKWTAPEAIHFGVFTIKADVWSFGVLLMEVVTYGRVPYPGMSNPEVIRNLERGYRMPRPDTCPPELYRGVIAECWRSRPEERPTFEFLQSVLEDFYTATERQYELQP

[4] = biological target: BTK (Tyrosine-protein kinase BTK) (Homo sapiens, UniProt Q06187); assay: Inhibition of recombinant human His-tagged full length BTK expressed in baculovirus expression system at 100 nM using Tyr01 peptide as substrate incubated for 1 hr by Z'lyte assay relative to control; conditions: probe Tyr01 peptide
Sequence of BTK (Tyrosine-protein kinase BTK) (Q06187 whole entry, the tested form may be a part): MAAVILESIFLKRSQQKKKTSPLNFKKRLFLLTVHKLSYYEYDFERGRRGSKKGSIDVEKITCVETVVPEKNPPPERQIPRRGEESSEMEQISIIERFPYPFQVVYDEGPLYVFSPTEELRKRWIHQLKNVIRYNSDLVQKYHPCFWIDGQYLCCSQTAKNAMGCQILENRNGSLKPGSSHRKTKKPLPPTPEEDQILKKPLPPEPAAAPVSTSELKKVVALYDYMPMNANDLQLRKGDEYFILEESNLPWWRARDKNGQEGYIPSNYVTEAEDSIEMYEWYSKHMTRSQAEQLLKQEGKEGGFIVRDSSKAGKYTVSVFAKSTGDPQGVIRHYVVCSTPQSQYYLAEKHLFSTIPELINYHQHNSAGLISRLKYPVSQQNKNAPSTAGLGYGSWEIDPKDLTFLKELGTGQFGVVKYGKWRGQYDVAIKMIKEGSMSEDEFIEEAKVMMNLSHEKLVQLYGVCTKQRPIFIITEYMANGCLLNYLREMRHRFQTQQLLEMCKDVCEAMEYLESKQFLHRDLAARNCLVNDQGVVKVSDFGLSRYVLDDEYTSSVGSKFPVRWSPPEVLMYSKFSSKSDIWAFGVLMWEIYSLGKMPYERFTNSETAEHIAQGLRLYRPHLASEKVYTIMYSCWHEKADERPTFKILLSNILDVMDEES

[5] = biological target: T3, Tyrosine-protein kinase JAK3 (Homo sapiens) (UniProt P52333); assay: Irreversible inhibition of recombinant human GST-tagged JAK3 cytoplasmic domain (781 to 1124 residues) expressed in baculovirus expression system at IC90 using TK-substrate-biotin preincubated for 30 mins followed by 1000 fold dilution and measured after 24 hrs by HTRF assay; conditions: time 24.5 hrs
T3 sequence (whole entry): T1 sequence (P52333 whole entry)

[6] = Apparent volume of distribution in ICR mouse at 10 mg/kg, iv administered as single dose by LC-MS/MS analysis; type: ADME, organism-based; conditions: in vivo, read-out: Vz
[7] = Cmax in ICR mouse at 30 mg/kg, po administered as single dose via gavage by LC-MS/MS analysis; type: ADME, organism-based; design: route oral, dose 30 mg/kg; conditions: in vivo
[8] = Oral bioavailability in ICR mouse at 30 mg/kg administered as single dose via gavage by LC-MS/MS analysis; type: ADME, organism-based; conditions: in vivo

IC50 [1]: 1.7 nM
inhibition [2]: Active
inhibition at 1 h, 0.1 µM [3]: 20.6%
inhibition at 1 h, 0.1 µM [4]: 6.3%
inhibition [5]: Active
Vd [6]: 8.36 L/kg
Cmax [7]: 2010 ng/mL
bioavailability [8]: 23.8%
Structure (SMILES): C=CC(=O)Nc1ccc(-c2ccnc(Nc3ccc(N4CCOCC4)cc3)n2)cc1
